Assays:
sigma-2 receptor = sigma-2 receptor (Homo sapiens, UniProt Q5BJF2); assay: sigma-2 receptor binding affinity (Ki); conditions: for Ki: read-out: Ki (nM) Sigma-2
sigma-1 receptor = sigma-1 receptor (Homo sapiens, UniProt Q99720); assay: sigma-1 receptor binding affinity (Ki); conditions: for Ki: read-out: Ki (nM) Sigma-1
Sequence of sigma-1 receptor (Q99720 whole entry, species assumed): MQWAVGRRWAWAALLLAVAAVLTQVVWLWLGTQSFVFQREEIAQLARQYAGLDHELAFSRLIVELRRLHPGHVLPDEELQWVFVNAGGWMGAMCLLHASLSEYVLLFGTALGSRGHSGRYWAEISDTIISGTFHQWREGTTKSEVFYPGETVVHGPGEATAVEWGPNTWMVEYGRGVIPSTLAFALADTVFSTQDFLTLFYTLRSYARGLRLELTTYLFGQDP

Sequence of sigma-2 receptor (Q5BJF2 whole entry, species assumed): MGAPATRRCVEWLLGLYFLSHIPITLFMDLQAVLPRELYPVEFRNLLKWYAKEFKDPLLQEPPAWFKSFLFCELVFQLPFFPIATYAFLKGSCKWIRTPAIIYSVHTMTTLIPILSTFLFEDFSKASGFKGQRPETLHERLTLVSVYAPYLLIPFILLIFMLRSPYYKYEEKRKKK

Row | Structure (SMILES) | Ki (sigma-2 receptor) [nM] | Ki (sigma-1 receptor) [nM] | further results
1 | NC(=O)c1ccc(-n2nc(C(=O)N3CCCCC3)c3c2CCC(NCCc2ccccc2)C3)cc1 (stereo not shown) [compound 201243, 4-(5-(Phenethylamino)-3-(piperidine-1-carbonyl)-4,5,6,7-tetrahydro-1H-indazol-1-yl)benzamide] | 561 | 465 | 
2 | CCCn1nc(C(=O)N2CCCCC2)c2c1CCC(N1CCC(c3ccncc3)CC1)C2 (stereo not shown) [compound 200639, Piperidin-1-yl(1-propyl-5-(4-(pyridin-4-yl)piperidin-1-yl)-4,5,6,7-tetrahydro-1H-indazol-3-yl)methanone] | 16 |  | selectivity of sigma-2 ligands against sigma-1 (in words) (sigma-2 receptor): excellent selectivity
3 | CCCn1nc(C(=O)N(C)C)c2c1CCC(NCCc1ccc3c(c1)OCO3)C2 (stereo not shown) [compound 200876, 5-((2-(benzo[d][1,3]dioxol-5-yl)ethyl)amino)-N,N-dimethyl-1-propyl-4,5,6,7-tetrahydro-1H-indazole-3-carboxamide] | 430 | > 10000 | 
4 | O=C(c1c2c(nn1-c1ccc(F)cc1)CCC(NCCc1ccncc1)C2)N1CCCCC1 (stereo not shown) [compound 201116, (2-(4-fluorophenyl)-5-((2-(pyridin-4-yl)ethyl)amino)-4,5,6,7-tetrahydro-2H-indazol-3-yl)(piperidin-1-yl)methanone] | 251 | 103 | 
5 | CCCn1nc(C(=O)N2CCCCC2)c2c1CCC(NCCCN1CCCC1=O)C2 (stereo not shown) [compound 54120] | 673 |  | 
6 | CCCn1nc(C(=O)N(C)C)c2c1CCC(NCCc1ccc(C(F)(F)F)cc1)C2 (stereo not shown) [compound 200878, N,N-dimethyl-1-propyl-5-((4-(trifluoromethyl)phenethyl)amino)-4,5,6,7-tetrahydro-1H-indazole-3-carboxamide] | 595 | 1400 | 
7 | CCCn1nc(C(=O)N(C)C)c2c1CCC(SCc1ccc(F)cc1)C2 (stereo not shown) [compound 200624, 5-((4-fluorobenzyl)thio)-N,N-dimethyl-1-propyl-4,5,6,7-tetrahydro-1H-indazole-3-carboxamide] | > 10000 | > 10000 | activity against sigma-2 (in words) (sigma-2 receptor): completely lost; activity against sigma-1 (in words) (sigma-1 receptor): completely lost
8 | O=C(c1nn(Cc2ccccc2)c2c1CC(NCc1ccc(F)cc1)CC2)N1CCCCC1 (stereo not shown) [compound 201115, (1-benzyl-5-((4-fluorobenzyl)amino)-4,5,6,7-tetrahydro-1H-indazol-3-yl)(piperidin-1-yl)methanone] | > 10000 | 70 | selectivity sigma-1 versus sigma-2 (in words) (sigma-1 receptor): excellent selectivity
9 | CCCn1nc(C(=O)N2CCCCC2)c2c1CCC(NCCNC(=N)N)C2 (stereo not shown) [compound 200829, 2-(2-((3-(Piperidine-1-carbonyl)-1-propyl-4,5,6,7-tetrahydro-1H-indazol-5-yl)amino)ethyl)guanidine] | 2160 |  | activity against sigma-2 (in words) (sigma-2 receptor): decreased activity
10 | CCCn1nc(C(=O)N2CCCCC2)c2c1CCC(Nc1ccc(N3CCCCC3)cc1)C2 (stereo not shown) [compound 200637, Piperidin-1-yl(5-((4-(piperidin-1-yl)phenyl)amino)-1-propyl-4,5,6,7-tetrahydro-1H-indazol-3-yl)methanone] | 787 |  | 
11 | O=C(c1nn(-c2ccccc2)c2c1CC(NCCc1ccc(C(F)(F)F)cc1)CC2)N1CCCCC1 (stereo not shown) [compound 201684, (1-Phenyl-5-((4-(trifluoromethyl)phenethyl)amino)-4,5,6,7-tetrahydro-1H-indazol-3-yl)(piperidin-1-yl)methanone] | > 10000 | 337 | 
12 | CCCn1nc(C(=O)N2CCCCC2)c2c1CCC(NCc1ccc(S(N)(=O)=O)cc1)C2 (stereo not shown) [compound 200652, 4-(((3-(Piperidine-1-carbonyl)-1-propyl-4,5,6,7-tetrahydro-1H-indazol-5-yl)amino)methyl)benzenesulfonamide] | 439 |  | 
13 | CCCn1nc(C(=O)N(C)C)c2c1CCC(NS(=O)(=O)c1ccc(F)cc1)C2 (stereo not shown) [compound 200629, 5-((4-fluorophenyl)sulfonamido)-N,N-dimethyl-1-propyl-4,5,6,7-tetrahydro-1H-indazole-3-carboxamide] | > 10000 | > 10000 | activity against sigma-2 (in words) (sigma-2 receptor): did not restore the activity; activity against sigma-1 (in words) (sigma-1 receptor): did not restore the activity
14 | C=Cc1ccc(-n2nc3c(c2C(=O)N2CCCCC2)CC(NCCc2ccccc2)CC3)cc1 (stereo not shown) [compound 201591, (5-(phenethylamino)-2-(4-vinylphenyl)-4,5,6,7-tetrahydro-2H-indazol-3-yl)(piperidin-1-yl)methanone] | 32 | 96 | 
15 | CCCn1nc(C(=O)N2CCCCC2)c2c1CCC(N(C)Cc1ccc(F)cc1)C2 (stereo not shown) [compound 196339, (5-((4-fluorobenzyl)(methyl)amino)-1-propyl-4,5,6,7-tetrahydro-1H-indazol-3-yl)(piperidin-1-yl)methanone] | 19 |  | selectivity of sigma-2 ligands against sigma-1 (in words) (sigma-2 receptor): excellent selectivity
16 | CCCn1nc(C(=O)N2CCCCC2)c2c1CCC(NCc1ccc(N3CCCCC3)cc1)C2 (stereo not shown) [compound 200647, Piperidin-1-yl(5-((4-(piperidin-1-yl)benzyl)amino)-1-propyl-4,5,6,7-tetrahydro-1H-indazol-3-yl)methanone] | 169 |  | 
17 | CCCn1nc(C(=O)N2CCCCC2)c2c1CCC(NCCN1CCCCC1)C2 (stereo not shown) [compound 200640, Piperidin-1-yl(5-((2-(piperidin-1-yl)ethyl)amino)-1-propyl-4,5,6,7-tetrahydro-1H-indazol-3-yl)methanone] | 434 |  | 
18 | CCCn1nc(C(=O)N2CCCCC2)c2c1CCC(NCCCNC)C2 (stereo not shown) [compound 200820, (5-((3-(Methylamino)propyl)amino)-1-propyl-4,5,6,7-tetrahydro-1H-indazol-3-yl)(piperidin-1-yl)methanone] | 1990 |  | 
19 | CCCn1nc(C(=O)N(C)C)c2c1CCC(NCc1ccc(OC)cc1OC)C2 (stereo not shown) [compound 200874, 5-((2,4-dimethoxybenzyl)amino)-N,N-dimethyl-1-propyl-4,5,6,7-tetrahydro-1H-indazole-3-carboxamide] | 839 |  | 
20 | CCCn1nc(C(=O)N2CCCCC2)c2c1CCC(N1CCN(Cc3ccc(C#N)cc3)CC1)C2 (stereo not shown) [compound 200641, 4-((4-(3-(Piperidine-1-carbonyl)-1-propyl-4,5,6,7-tetrahydro-1H-indazol-5-yl)piperazin-1-yl)methyl)benzonitrile] | 1100 |  | 
21 | CCCn1nc(C(=O)N2CCCCC2)c2c1CCC(N1CCc3ccccc3C1)C2 (stereo not shown) [compound 196338, (5-(3,4-dihydroisoquinolin-2(1H)-yl)-1-propyl-4,5,6,7-tetrahydro-1H-indazol-3-yl)(piperidin-1-yl)methanone] | 31 |  | activity against sigma-2 (in words) (sigma-2 receptor): retained sigma-2 activity; selectivity of sigma-2 ligands against sigma-1 (in words) (sigma-2 receptor): excellent selectivity
22 | CCCn1nc(C(=O)N2CCCCC2)c2c1CCC(NCC1CCOCC1)C2 (stereo not shown) [compound 200642, Piperidin-1-yl(1-propyl-5-(((tetrahydro-2H-pyran-4-yl)methyl)amino)-4,5,6,7-tetrahydro-1H-indazol-3-yl)methanone] | 710 |  | 
23 | O=C(c1c2c(nn1-c1ccc(F)cc1)CCC(NCc1ccc(F)cc1)C2)N1CCCCC1 (stereo not shown) [compound 201117, (5-((4-fluorobenzyl)amino)-2-(4-fluorophenyl)-4,5,6,7-tetrahydro-2H-indazol-3-yl)(piperidin-1-yl)methanone] |  | 17 | selectivity of sigma-1 ligand against sigma-2 (sigma-1 receptor): over 500 ×

From US12692236B2, “Small molecule modulators of sigma-1 and sigma-2 receptors and uses thereof” (Northwestern University, priority 2018, dated 2026)
